{
  "source": "ChEMBL document CHEMBL5352441",
  "about": "“Modulation of FLT3-ITD and CDK9 in acute myeloid leukaemia cells by novel proteolysis targeting chimera (PROTAC)” (2022)",
  "key": {"[1]": {"target": "T1, Protein cereblon/Receptor-type tyrosine-protein kinase FLT3 (Homo sapiens) (UniProt P36888+Q96SW2)", "T1 sequence (P36888 27-993 limits assumed)": "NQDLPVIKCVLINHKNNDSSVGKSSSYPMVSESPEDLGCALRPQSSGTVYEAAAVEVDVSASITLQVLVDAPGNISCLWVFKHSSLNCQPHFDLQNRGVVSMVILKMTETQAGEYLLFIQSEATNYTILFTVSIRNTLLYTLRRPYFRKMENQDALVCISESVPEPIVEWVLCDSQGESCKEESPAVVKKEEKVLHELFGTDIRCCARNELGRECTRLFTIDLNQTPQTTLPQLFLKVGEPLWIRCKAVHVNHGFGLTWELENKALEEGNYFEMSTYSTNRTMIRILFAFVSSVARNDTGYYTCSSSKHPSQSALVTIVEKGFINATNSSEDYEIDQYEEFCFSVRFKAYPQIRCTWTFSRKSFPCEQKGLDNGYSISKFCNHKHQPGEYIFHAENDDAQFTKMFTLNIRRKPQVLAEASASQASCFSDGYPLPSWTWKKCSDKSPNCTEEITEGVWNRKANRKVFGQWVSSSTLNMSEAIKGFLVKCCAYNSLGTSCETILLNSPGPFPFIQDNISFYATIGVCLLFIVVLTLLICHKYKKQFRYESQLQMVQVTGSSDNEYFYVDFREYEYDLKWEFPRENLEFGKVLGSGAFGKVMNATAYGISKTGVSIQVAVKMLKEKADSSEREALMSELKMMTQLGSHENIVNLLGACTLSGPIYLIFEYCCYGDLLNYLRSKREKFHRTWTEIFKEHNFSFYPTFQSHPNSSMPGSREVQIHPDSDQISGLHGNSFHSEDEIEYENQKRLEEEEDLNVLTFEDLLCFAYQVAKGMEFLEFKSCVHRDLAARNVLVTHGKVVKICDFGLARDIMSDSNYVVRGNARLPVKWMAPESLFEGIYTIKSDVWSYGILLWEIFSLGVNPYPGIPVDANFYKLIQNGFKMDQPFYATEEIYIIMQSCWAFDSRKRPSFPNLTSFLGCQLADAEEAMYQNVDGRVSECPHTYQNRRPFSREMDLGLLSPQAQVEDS", "T1 sequence (Q96SW2 whole entry partner)": "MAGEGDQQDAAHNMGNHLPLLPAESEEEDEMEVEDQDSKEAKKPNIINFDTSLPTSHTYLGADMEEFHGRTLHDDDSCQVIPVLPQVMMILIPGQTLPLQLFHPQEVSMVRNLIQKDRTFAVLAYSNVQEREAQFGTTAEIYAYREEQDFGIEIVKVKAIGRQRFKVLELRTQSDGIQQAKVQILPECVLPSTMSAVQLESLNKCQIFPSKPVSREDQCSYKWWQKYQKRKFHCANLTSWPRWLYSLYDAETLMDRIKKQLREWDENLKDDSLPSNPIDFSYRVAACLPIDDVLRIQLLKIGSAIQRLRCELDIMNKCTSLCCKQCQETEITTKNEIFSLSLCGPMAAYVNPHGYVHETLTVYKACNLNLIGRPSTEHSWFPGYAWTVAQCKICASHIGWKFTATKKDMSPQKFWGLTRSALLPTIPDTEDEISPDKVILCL", "experiment": "PROTAC activity at CRBN/FLT3 in human MV4-11 cells at 0.1 to 0.5 uM preincubated for 90 mins with 4-hydroxythalidomide followed by compound addition and further incubated for 16 hrs by immunoblot analysis", "assay_type": "cell-based", "conditions": "dose 0.1-0.5 µM"}, "MV4-11 [2]": {"system": "MV4-11", "experiment": "Induction of cell cycle arrest in CRBN-deficient human MV4-11 cells assessed as accumulation of cells at sub-G1 phase at 0.004 uM incubated for 16 hrs by PI staining based flow cytometry analysis (reference value: 12.52%)", "assay_type": "functional"}, "MV4-11 [3]": {"system": "MV4-11", "experiment": "Induction of cell cycle arrest in human MV4-11 cells assessed as accumulation of cells at G1 phase at 0.5 uM incubated for 16 hrs by PI staining based flow cytometry analysis (reference value: 62.97%)", "assay_type": "functional"}, "MV4-11 [4]": {"system": "MV4-11", "experiment": "Induction of cell cycle arrest in CRBN-deficient human MV4-11 cells assessed as accumulation of cells at G2/M phase at 0.02 uM incubated for 16 hrs by PI staining based flow cytometry analysis (reference value: 9.34%)", "assay_type": "functional"}, "MV4-11 [5]": {"system": "MV4-11", "experiment": "Induction of cell cycle arrest in CRBN-deficient human MV4-11 cells assessed as accumulation of cells at G2/M phase at 0.5 uM incubated for 16 hrs by PI staining based flow cytometry analysis (reference value: 9.34%)", "assay_type": "functional"}, "MOLM-13": {"system": "MOLM-13", "experiment": "Antiproliferative activity against human MOLM-13 cells harboring FLT3-ITD mutation assessed as cell growth inhibition incubated for 72 hrs by resazurin dye based fluorescence analysis", "assay_type": "functional"}, "MV4-11 [6]": {"system": "MV4-11", "experiment": "Antiproliferative activity against CRBN-deficient human MV4-11 cells assessed as cell growth inhibition incubated for 72 hrs by resazurin dye based fluorescence analysis", "assay_type": "functional"}, "MV4-11 [7]": {"system": "MV4-11", "experiment": "Downregulation of MCL-1 gene expression in human MV4-11 cells incubated for 4 hrs by qRT-PCR analysis", "assay_type": "functional, cell-based", "conditions": "dose 0.004-2.5 µM"}, "MV4-11 [8]": {"system": "MV4-11", "experiment": "Induction of cell cycle arrest in CRBN-deficient human MV4-11 cells assessed as accumulation of cells at G1 phase at 0.1 uM incubated for 16 hrs by PI staining based flow cytometry analysis (reference value: 54.05%)", "assay_type": "functional"}, "MV4-11 [9]": {"system": "MV4-11", "experiment": "Downregulation of Bcl-2 gene expression in human MV4-11 cells incubated for 4 hrs by qRT-PCR analysis", "assay_type": "functional, cell-based", "conditions": "dose 0.004-2.5 µM"}, "[10]": {"experiment": "Selectivity index, ratio of GI50 for antiproliferative activity against CRBN-deficient human MV4-11 cells to GI50 for antiproliferative activity against human MV4-11 cells harboring FLT3-ITD mutation", "assay_type": "functional"}, "[11]": {"system": "Receptor-type tyrosine-protein kinase FLT3 (Homo sapiens), P36888 [UNDEFINED MUTATION]", "sequence (P36888 whole entry, looked up, change not shown)": "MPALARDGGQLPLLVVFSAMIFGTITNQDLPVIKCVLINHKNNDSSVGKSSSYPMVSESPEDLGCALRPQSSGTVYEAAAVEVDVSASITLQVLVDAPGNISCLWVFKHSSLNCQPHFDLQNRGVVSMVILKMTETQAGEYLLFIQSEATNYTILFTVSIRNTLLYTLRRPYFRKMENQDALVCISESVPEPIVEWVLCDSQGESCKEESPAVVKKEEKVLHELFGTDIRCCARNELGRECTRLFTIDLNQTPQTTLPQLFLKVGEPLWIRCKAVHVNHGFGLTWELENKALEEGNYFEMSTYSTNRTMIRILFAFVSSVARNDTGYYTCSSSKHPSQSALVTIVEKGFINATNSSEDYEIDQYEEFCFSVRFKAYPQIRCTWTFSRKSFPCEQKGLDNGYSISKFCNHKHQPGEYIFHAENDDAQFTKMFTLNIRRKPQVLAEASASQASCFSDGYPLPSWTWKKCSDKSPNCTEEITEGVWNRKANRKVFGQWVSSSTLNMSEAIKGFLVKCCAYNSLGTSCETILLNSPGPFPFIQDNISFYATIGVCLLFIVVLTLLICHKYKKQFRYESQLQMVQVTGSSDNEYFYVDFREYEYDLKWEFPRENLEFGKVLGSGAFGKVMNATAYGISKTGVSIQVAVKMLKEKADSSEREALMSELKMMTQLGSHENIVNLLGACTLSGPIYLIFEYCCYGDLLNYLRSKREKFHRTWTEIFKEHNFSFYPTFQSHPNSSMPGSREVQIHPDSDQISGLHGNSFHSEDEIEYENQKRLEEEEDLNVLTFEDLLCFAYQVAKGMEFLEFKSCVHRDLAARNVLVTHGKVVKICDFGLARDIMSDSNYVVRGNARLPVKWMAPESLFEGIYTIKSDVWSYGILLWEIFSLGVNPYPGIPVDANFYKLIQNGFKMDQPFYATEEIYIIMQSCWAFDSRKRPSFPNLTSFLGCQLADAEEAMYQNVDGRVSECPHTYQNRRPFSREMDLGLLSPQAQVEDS", "experiment": "Inhibition of FLT3 in human MV4-11 cells harboring FLT3-ITD mutation assessed as reduction in ERK1/2 phosphorylation at T202/Y204 residue at 0.004 to 2.5 uM incubated for 16 hrs by immunoblot analysis", "assay_type": "cell-based", "conditions": "dose 0.004-2.5 µM"}, "CCRF-CEM": {"system": "CCRF-CEM", "experiment": "Antiproliferative activity against human CEM cells assessed as cell growth inhibition incubated for 72 hrs by resazurin dye based fluorescence analysis", "assay_type": "functional"}, "MV4-11 [12]": {"system": "MV4-11", "experiment": "Induction of cell cycle arrest in human MV4-11 cells assessed as accumulation of cells at subG1 phase at 0.5 uM incubated for 16 hrs by PI staining based flow cytometry analysis (reference value: 10.51%)", "assay_type": "functional"}, "MV4-11 [13]": {"system": "MV4-11", "experiment": "Induction of cell cycle arrest in CRBN-deficient human MV4-11 cells assessed as accumulation of cells at sub-G1 phase at 0.02 uM incubated for 16 hrs by PI staining based flow cytometry analysis (reference value: 12.52%)", "assay_type": "functional"}, "MV4-11 [14]": {"system": "MV4-11", "experiment": "Downregulation of MEISI gene expression in human MV4-11 cells incubated for 4 hrs by qRT-PCR analysis", "assay_type": "functional, cell-based", "conditions": "dose 0.004-2.5 µM"}, "HL-60": {"system": "HL-60", "experiment": "Antiproliferative activity against human HL-60 cells assessed as cell growth inhibition incubated for 72 hrs by resazurin dye based fluorescence analysis", "assay_type": "functional"}, "MV4-11 [15]": {"system": "MV4-11", "experiment": "Induction of apoptosis in human MV4-11 cells assessed as activation of caspase 3 at 0.1 to 0.5 uM preincubated for 90 mins with 4-hydroxythalidomide followed by compound addition and further incubated for 16 hrs in presence of Ac-DEVD-AMC by fluorescence microplate reader analysis", "assay_type": "functional, cell-based", "conditions": "dose 0.1-0.5 µM"}, "MV4-11 [16]": {"system": "MV4-11", "experiment": "Downregulation of HOXA9 gene expression in human MV4-11 cells incubated for 4 hrs by qRT-PCR analysis", "assay_type": "functional, cell-based", "conditions": "dose 0.004-2.5 µM"}, "MV4-11 [17]": {"system": "MV4-11", "experiment": "Induction of cell cycle arrest in human MV4-11 cells assessed as accumulation of cells at S phase at 2.5 uM incubated for 16 hrs by PI staining based flow cytometry analysis (reference value: 26.16%)", "assay_type": "functional"}, "MV4-11 [18]": {"system": "MV4-11", "experiment": "Induction of cell cycle arrest in human MV4-11 cells assessed as accumulation of cells at G1 phase at 0.004 uM incubated for 16 hrs by PI staining based flow cytometry analysis (reference value: 62.97%)", "assay_type": "functional"}, "[19]": {"target": "T1, Protein cereblon/Receptor-type tyrosine-protein kinase FLT3 (Homo sapiens)", "experiment": "PROTAC activity at CRBN/FLT3 in human MV4-11 cells harboring FLT3-ITD mutation assessed as induction of protein degradation at […] incubated for 16 hrs by immunoblot analysis", "assay_type": "cell-based"}, "MV4-11 [20]": {"system": "MV4-11", "experiment": "Induction of cell cycle arrest in CRBN-deficient human MV4-11 cells assessed as accumulation of cells at G1 phase at 0.004 uM incubated for 16 hrs by PI staining based flow cytometry analysis (reference value: 54.05%)", "assay_type": "functional"}},
  "note": "The source made the active and inactive calls. The rule behind the calls is not given here.",
  "data": [
    {"smiles": "NC1CCC(Nc2nc(Nc3ccc(N4CCN(CCOCCOCCNC(=O)CNc5cccc6c5C(=O)N(C5CCC(=O)NC5=O)C6=O)CC4)cc3)c3ncn(C4CCCC4)c3n2)CC1", "note": "(stereo not drawn)", "values": [
      {"measurement": "Activity", "setting": "[1]", "result": "inactive"},
      {"measurement": "Activity", "setting": "MV4-11 [2]", "result": 12.68, "unit": "%"},
      {"measurement": "Activity", "setting": "MV4-11 [3]", "result": 74.6, "unit": "%"},
      {"measurement": "Activity", "setting": "MV4-11 [4]", "result": 6, "unit": "%"},
      {"measurement": "Activity", "setting": "MV4-11 [5]", "result": 3.91, "unit": "%"},
      {"measurement": "GI50", "setting": "MOLM-13", "result": 42, "unit": "nM"},
      {"measurement": "GI50", "setting": "MV4-11 [6]", "result": 119, "unit": "nM"},
      {"measurement": "Activity", "setting": "MV4-11 [7]", "result": "Dose-Dependent Effect"},
      {"measurement": "Activity", "setting": "MV4-11 [8]", "result": 90.54, "unit": "%"},
      {"measurement": "Activity", "setting": "MV4-11 [9]", "result": "Dose-Dependent Effect"},
      {"measurement": "RatioGI50", "setting": "[10]", "result": 2},
      {"measurement": "inhibition", "setting": "[11]", "result": "Active"},
      {"measurement": "GI50", "setting": "CCRF-CEM", "result": "> 10000", "unit": "nM"},
      {"measurement": "Activity", "setting": "MV4-11 [12]", "result": 58.62, "unit": "%"},
      {"measurement": "Activity", "setting": "MV4-11 [13]", "result": 13.43, "unit": "%"},
      {"measurement": "Activity", "setting": "MV4-11 [14]", "result": "Dose-Dependent Effect"},
      {"measurement": "GI50", "setting": "HL-60", "result": 6120, "unit": "nM"},
      {"measurement": "Activity", "setting": "MV4-11 [15]", "result": "inactive"},
      {"measurement": "Activity", "setting": "MV4-11 [16]", "result": "Dose-Dependent Effect"},
      {"measurement": "Activity", "setting": "MV4-11 [17]", "result": 34.87, "unit": "%"},
      {"measurement": "Activity", "setting": "MV4-11 [18]", "result": 69.48, "unit": "%"},
      {"measurement": "Activity", "setting": "[19]", "result": "Active"},
      {"measurement": "Activity", "setting": "MV4-11 [20]", "result": 63.08, "unit": "%"}
    ]}
  ]
}
